In US11459329B2, “Imidazopyridazine and imidazopyridine compounds and uses thereof” (Incyte Corporation, priority 2018, dated 2022):
Where two headings read alike, the source gives them in different places.

Tests used:
[1] = target: ALK2 (aa 147-end) (Homo sapiens (Human), UniProt Q04771); assay: ALK2 HTRF Assay; assay type: biochemical
Procedure: The enzymatic assays were conducted in white 384-well polystyrene plates in a final volume of 8 μL. The inhibitors were serially diluted in DMSO and added to the plate wells prior to addition of the other reaction components. The assays were carried out at 25° C. in the assay buffer (50 mM HEPES, pH 7.0, 10% Glycerol, 0.01% Brij50, 10 mM MgCl2, 1 mM EGTA, 5 mM DTT, and 0.01% BSA), containing 50 nM LANCE Ultra ULight™-DNA Topoisomerase 2-alpha peptide (Perkin Elmer TRF0130), and 3 μM ATP. The final concentration of DMSO in the assay was 1% and the enzyme concentration was 0.5 nM for ALK2. […] […] IC50 determination was performed by fitting percent control activity versus the log of the inhibitor concentration using the IDBS XLFit and GraphPad Prism 5.0 software.

[2] = system: ALK2 mutant DIPG cell; settings: ALK2 mutant DIPG cells; cited from earlier work
[3] = 3 μM ATP, 0.5 nM ALK2, 2 hr, 25° C., read-out: ALK2 IC50

Sequence of ALK2 (aa 147-end) (Q04771 147-509): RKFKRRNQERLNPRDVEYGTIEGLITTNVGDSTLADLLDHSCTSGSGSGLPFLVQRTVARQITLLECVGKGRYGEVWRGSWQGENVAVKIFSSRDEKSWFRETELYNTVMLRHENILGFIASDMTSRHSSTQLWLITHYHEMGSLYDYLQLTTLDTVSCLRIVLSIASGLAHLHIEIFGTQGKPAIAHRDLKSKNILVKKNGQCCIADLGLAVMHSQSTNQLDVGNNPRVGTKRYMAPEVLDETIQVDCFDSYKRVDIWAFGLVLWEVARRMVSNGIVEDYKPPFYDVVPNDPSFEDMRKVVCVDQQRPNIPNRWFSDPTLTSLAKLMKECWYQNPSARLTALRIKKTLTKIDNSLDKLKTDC

Row | Compound | IC50 [1, 3] [nM] | further results
1 | Cc1nn2c(-c3ccnc4nc(-c5ccn(C)n5)ccc34)cnc2cc1-c1ccc(C(=O)N(C)C)cc1 [Example 47, N,N-dimethyl-4-(6-methyl-3-(7-(1-methyl-1H-pyrazol-3-yl)-1,8-naphthyridin-4-yl)imidazo[1,2-b]pyridazin-7-yl)benzamide] | 1 to 5 | –
2 | Cc1cc(-c2ccc3c(-c4cnc5cc(-c6ccc(CN7CCC7)cc6)c(C)nn45)ccnc3n2)n[nH]1 [Example 48, 5-(7-(4-(Azetidin-1-ylmethyl)phenyl)-6-methylimidazo[1,2-b]pyridazin-3-yl)-2-(5-methyl-1H-pyrazol-3-yl)-1,8-naphthyridine] | < 1 | –
3 | Cc1cc(-c2ccc3c(-c4cnc5cc(-c6ccc(CN7CCOCC7)cc6)c(C)nn45)ccnc3n2)n[nH]1 [Example 49, 4-(4-(6-methyl-3-(7-(5-methyl-1H-pyrazol-3-yl)-1,8-naphthyridin-4-yl)imidazo[1,2-b]pyridazin-7-yl)benzyl)morpholine] | < 1 | –
4 | Cc1cc(-c2ccc3c(-c4cnc5cc(-c6cnn(C(C)C)c6)c(C)nn45)ccnc3n2)n[nH]1 [Example 50, 5-(7-(1-Isopropyl-1H-pyrazol-4-yl)-6-methylimidazo[1,2-b]pyridazin-3-yl)-2-(5-methyl-1H-pyrazol-3-yl)-1,8-naphthyridine] | < 1 | –
5 | Cc1nn2c(-c3ccnc4nc(-c5cnn(C)c5)ccc34)cnc2cc1-c1cnn(C(C)C)c1 [Example 51, 5-(7-(1-Isopropyl-1H-pyrazol-4-yl)-6-methylimidazo[1,2-b]pyridazin-3-yl)-2-(1-methyl-1H-pyrazol-4-yl)-1,8-naphthyridine] | – | IC50 [1]: 1 to 5 nM
6 | CCn1cnc(-c2ccc3c(-c4cnc5cc(-c6ccc(CN7CCCC7)cc6)c(C)nn45)ccnc3n2)c1 [Example 52, 2-(1-Ethyl-1H-imidazol-4-yl)-5-(6-methyl-7-(4-(pyrrolidin-1-ylmethyl)phenyl)imidazo[1,2-b]pyridazin-3-yl)-1,8-naphthyridine] | < 1 | –
7 | CCn1cnc(-c2ccc3c(-c4cnc5cc(-c6ccc(CN7CCOCC7)cc6)c(C)nn45)ccnc3n2)c1 [Example 53, 4-(4-(3-(7-(1-Ethyl-1H-imidazol-4-yl)-1,8-naphthyridin-4-yl)-6-methylimidazo[1,2-b]pyridazin-7-yl)benzyl)morpholine] | 1 to 5 | –
8 | CCn1cnc(-c2ccc3c(-c4cnc5cc(-c6ccc(CN(C)C)cc6)c(C)nn45)ccnc3n2)c1 [Example 54, 1-(4-(3-(7-(1-Ethyl-1H-imidazol-4-yl)-1,8-naphthyridin-4-yl)-6-methylimidazo[1,2-b]pyridazin-7-yl)phenyl)-N,N-dimethylmethanamine] | < 1 | –
9 | CCn1cnc(-c2ccc3c(-c4cnc5cc(-c6cnn(C(C)C)c6)c(C)nn45)ccnc3n2)c1 [Example 55, 2-(1-Ethyl-1H-imidazol-4-yl)-5-(7-(1-isopropyl-1H-pyrazol-4-yl)-6-methylimidazo[1,2-b]pyridazin-3-yl)-1,8-naphthyridine] | 1 to 5 | –
10 | CCn1cnc(-c2ccc3c(-c4cnc5cc(-c6ccc(CN7CCC7)cc6)c(C)nn45)ccnc3n2)c1 [Example 56, 5-(7-(4-(Azetidin-1-ylmethyl)phenyl)-6-methylimidazo[1,2-b]pyridazin-3-yl)-2-(1-ethyl-1H-imidazol-4-yl)-1,8-naphthyridine] | 1 to 5 | –
11 | CCn1cnc(-c2ccc3c(-c4cnc5cc(-c6ccc(CN7CC(F)(F)C7)cc6)c(C)nn45)ccnc3n2)c1 [Example 57] | 1 to 5 | –
12 | CCn1cnc(-c2ccc3c(-c4cnc5cc(-c6ccc(CN7CCO[C@@H](C)C7)cc6)c(C)nn45)ccnc3n2)c1 [Example 58, (S)-4-(4-(3-(7-(1-ethyl-1H-imidazol-4-yl)-1,8-naphthyridin-4-yl)-6-methylimidazo[1,2-b]pyridazin-7-yl)benzyl)-2-methylmorpholine] | < 1 | –
13 | CCn1cnc(-c2ccc3c(-c4cnc5cc(-c6ccc(CN7CCO[C@H](CO)C7)cc6)c(C)nn45)ccnc3n2)c1 [Example 59, (S)-(4-(4-(3-(7-(1-ethyl-1H-imidazol-4-yl)-1,8-naphthyridin-4-yl)-6-methylimidazo[1,2-b]pyridazin-7-yl)benzyl)morpholin-2-yl)methanol] | 1 to 5 | –
14 | Cc1cnn(-c2ccc3c(-c4cnc5cc(-c6ccc(CN7CCCC7)cc6)c(C)nn45)ccnc3n2)n1 [Example 60, 2-(4-Methyl-2H-1,2,3-triazol-2-yl)-5-(6-methyl-7-(4-(pyrrolidin-1-ylmethyl)phenyl)imidazo[1,2-b]pyridazin-3-yl)-1,8-naphthyridine] | 1 to 5 | –
15 | Cc1cnn(-c2ccc3c(-c4cnc5cc(-c6cnn(C(C)C)c6)c(C)nn45)ccnc3n2)n1 [Example 61, 5-(7-(1-Isopropyl-1H-pyrazol-4-yl)-6-methylimidazo[1,2-b]pyridazin-3-yl)-2-(4-methyl-2H-1,2,3-triazol-2-yl)-1,8-naphthyridine] | 1 to 5 | –
16 | Cc1cnn(-c2ccc3c(-c4cnc5cc(-c6cnn(C7CCOCC7)c6)c(C)nn45)ccnc3n2)n1 [Example 62, 2-(4-Methyl-2H-1,2,3-triazol-2-yl)-5-(6-methyl-7-(1-(tetrahydro-2H-pyran-4-yl)-1H-pyrazol-4-yl)imidazo[1,2-b]pyridazin-3-yl)-1,8-naphthyridine] | < 1 | –
17 | Cc1cnn(-c2ccc3c(-c4cnc5cc(-c6ccc(CN(C)C)cc6)c(C)nn45)ccnc3n2)n1 [Example 63, N,N-dimethyl-1-(4-(6-methyl-3-(7-(4-methyl-2H-1,2,3-triazol-2-yl)-1,8-naphthyridin-4-yl)imidazo[1,2-b]pyridazin-7-yl)phenyl)methanamine] | 1 to 5 | –
18 | Cc1cnn(-c2ccc3c(-c4cnc5cc(-c6ccc(CN7CCOCC7)cc6)c(C)nn45)ccnc3n2)n1 [Example 64, 4-(4-(6-Methyl-3-(7-(4-methyl-2H-1,2,3-triazol-2-yl)-1,8-naphthyridin-4-yl)imidazo[1,2-b]pyridazin-7-yl)benzyl)morpholine] | 1 to 5 | –
19 | Cc1cnn(-c2ccc3c(-c4cnc5cc(-c6ccc(CN(C)C)cc6)c(C)nn45)ccnc3n2)n1 [Example 65, N,N-dimethyl-1-(4-(6-methyl-3-(7-(4-methyl-2H-1,2,3-triazol-2-yl)-1,8-naphthyridin-4-yl)imidazo[1,2-b]pyridazin-7-yl)phenyl)methanamine] | 1 to 5 | –
20 | Cc1cnn(-c2ccc3c(-c4cnc5cc(-c6ccc(CN7CC[C@](C)(O)C7)cc6)c(C)nn45)ccnc3n2)n1 [Example 66, (S)-3-methyl-1-(4-(6-methyl-3-(7-(4-methyl-2H-1,2,3-triazol-2-yl)-1,8-naphthyridin-4-yl)imidazo[1,2-b]pyridazin-7-yl)benzyl)pyrrolidin-3-ol] | < 1 | –
21 | Cc1cnn(-c2ccc3c(-c4cnc5cc(-c6ccc(CN7CCC(O)CC7)cc6)c(C)nn45)ccnc3n2)n1 [Example 67, 1-(4-(6-methyl-3-(7-(4-methyl-2H-1,2,3-triazol-2-yl)-1,8-naphthyridin-4-yl)imidazo[1,2-b]pyridazin-7-yl)benzyl)piperidin-4-ol] | < 1 | –
22 | Cc1cnn(-c2ccc3c(-c4cnc5cc(-c6ccc(CN7CCC(C)(O)CC7)cc6)c(C)nn45)ccnc3n2)n1 [Example 68, 4-methyl-1-(4-(6-methyl-3-(7-(4-methyl-2H-1,2,3-triazol-2-yl)-1,8-naphthyridin-4-yl)imidazo[1,2-b]pyridazin-7-yl)benzyl)piperidin-4-ol] | < 1 | –
23 | Cc1cnn(-c2ccc3c(-c4cnc5cc(-c6ccc(CN7CC(C)(O)C7)cc6)c(C)nn45)ccnc3n2)n1 [Example 69, 3-methyl-1-(4-(6-methyl-3-(7-(4-methyl-2H-1,2,3-triazol-2-yl)-1,8-naphthyridin-4-yl)imidazo[1,2-b]pyridazin-7-yl)benzyl)azetidin-3-ol] | 1 to 5 | –
24 | Cc1cnn(-c2ccc3c(-c4cnc5cc(-c6ccc(CN7CCN(C)CC7)cc6)c(C)nn45)ccnc3n2)n1 [Example 70, 2-(4-methyl-2H-1,2,3-triazol-2-yl)-5-(6-methyl-7-(4-((4-methylpiperazin-1-yl)methyl)phenyl)imidazo[1,2-b]pyridazin-3-yl)-1,8-naphthyridine] | 1 to 5 | –
25 | CCn1cnc(-c2ccc3c(-c4cnc5cc(-c6ccc(CN7CCC(O)CC7)cc6)c(C)nn45)ccnc3n2)c1 [Example 71, 1-(4-(3-(7-(1-Ethyl-1H-imidazol-4-yl)-1,8-naphthyridin-4-yl)-6-methylimidazo[1,2-b]pyridazin-7-yl)benzyl)piperidin-4-ol] | 1 to 5 | –
26 | CCn1cnc(-c2ccc3c(-c4cnc5cc(-c6ccc(CN7CCC(C)(O)CC7)cc6)c(C)nn45)ccnc3n2)c1 [Example 72, 1-(4-(3-(7-(1-Ethyl-1H-imidazol-4-yl)-1,8-naphthyridin-4-yl)-6-methylimidazo[1,2-b]pyridazin-7-yl)benzyl)-4-methylpiperidin-4-ol] | < 1 | –
27 | c1ccc2c(-c3cnn4cc(-c5ccc(N6CCNCC6)cc5)cnc34)ccnc2c1 [LDN-19318917] | – | inhibition of ALK2 mutant DIPG cell viability [2]: significant inhibition
